Reference: the supplement of paper PMC10307832

Assays:
Assay in all cases: relative viability (nuclei count vs DMSO), 5 days (fraction); higher = more cells survive
[1] = compound: CC(C)(C)c1nc(-c2cccc(NS(=O)(=O)c3c(F)cccc3F)c2F)c(-c2ccnc(N)n2)s1 [Dabrafenib] + CC(=O)Nc1cccc(-n2c(=O)n(C3CC3)c(=O)c3c(Nc4ccc(I)cc4F)n(C)c(=O)c(C)c32)c1 [Trametinib] (partner 0.02 µM)
Summary of the method: (§1)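 For relative viability, nuclei counts in treated wells were divided by those in vehicle wells. Lung cancer cell lines had been pin-tool dosed in 1536-well plates the day after seeding and cultured for 5 days, then fixed and stained in one step (final 0.05% Triton X-100, 1% formaldehyde, 1 ug/ml Hoechst) and imaged at 4×. Doses were one drug alone or a fixed anchor-drug dose plus five library-drug doses (not always all listed) in √10 steps, and values are duplicate-plate medians.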

[2] = compound: CC(C)(C)c1nc(-c2cccc(NS(=O)(=O)c3c(F)cccc3F)c2F)c(-c2ccnc(N)n2)s1 [Dabrafenib] + CC(=O)c1c(C)c2cnc(Nc3ccc(N4CCNCC4)cn3)nc2n(C2CCCC2)c1=O [Palbociclib] (partner 0.5 µM)
Summary of the method: as §1

[3] = compound: CC(C)(C)c1nc(-c2cccc(NS(=O)(=O)c3c(F)cccc3F)c2F)c(-c2ccnc(N)n2)s1 [Dabrafenib] + CC1(C)CCC(c2ccc(Cl)cc2)=C(CN2CCN(c3ccc(C(=O)NS(=O)(=O)c4ccc(N[C@H](CCN5CCOCC5)CSc5ccccc5)c(S(=O)(=O)C(F)(F)F)c4)cc3)CC2)C1 [Navitoclax] (partner 0.5 µM)
Summary of the method: as §1

[4] = compound: CC(C)(C)c1nc(-c2cccc(NS(=O)(=O)c3c(F)cccc3F)c2F)c(-c2ccnc(N)n2)s1 [Dabrafenib] + C[C@]1(O)C[C@@H](c2nc(-c3ccc4ccc(-c5ccccc5)nc4c3)c3c(N)nccn32)C1 [Linsitinib] (partner 1 µM)
Summary of the method: as §1

| Cell Line | relative viability ([1]; first compound 0.003 µM) | relative viability ([1]; first compound 0.009487 µM) | relative viability ([1]; first compound 0.03 µM) | relative viability ([1]; first compound 0.09487 µM) | relative viability ([1]; first compound 0.3 µM) | relative viability ([2]; first compound 0.003 µM) | relative viability ([2]; first compound 0.009487 µM) | relative viability ([2]; first compound 0.03 µM) | relative viability ([2]; first compound 0.09487 µM) | relative viability ([2]; first compound 0.3 µM) | relative viability ([3]; first compound 0.003 µM) | relative viability ([3]; first compound 0.009487 µM) | relative viability ([3]; first compound 0.03 µM) | relative viability ([3]; first compound 0.09487 µM) | relative viability ([3]; first compound 0.3 µM) | relative viability ([4]; first compound 0.003 µM) | relative viability ([4]; first compound 0.009487 µM) | relative viability ([4]; first compound 0.03 µM) | relative viability ([4]; first compound 0.09487 µM) | relative viability ([4]; first compound 0.3 µM) |
| --- | --- | --- | --- | --- | --- | --- | --- | --- | --- | --- | --- | --- | --- | --- | --- | --- | --- | --- | --- | --- |
| NCI-H1915 | 0.295 | 0.249 | 0.264 | 0.288 | 0.313 | 0.52 | 0.579 | 0.447 | 0.417 | 0.508 | 0.777 | 0.768 | 0.733 | 0.732 | 0.746 | 1.11 | 1.14 | 1.08 | 1.02 | 0.964 |
| NCI-H1944 | 0.409 | 0.426 | 0.403 | 0.401 | 0.404 | 0.325 | 0.342 | 0.326 | 0.319 | 0.318 | 0.954 | 1.03 | 0.971 | 0.968 | 0.899 | 1.17 | 1.28 | 1.06 | 1.18 | 1.14 |
| NCI-H1975 | 0.214 | 0.316 | 0.317 | 0.321 | 0.367 | 0.437 | 0.581 | 0.553 | 0.456 | 0.384 | 1.2 | 1.11 | 0.954 | 1 | 1.18 | 1.06 | 1.04 | 0.889 | 0.995 | 0.905 |
| NCI-H1993 | 0.53 | 0.474 | 0.508 | 0.687 | 0.621 | 0.672 | 0.786 | 0.746 | 0.664 | 0.701 | 0.834 | 1.04 | 0.902 | 1.08 | 1.17 | 0.633 | 0.772 | 0.658 | 0.835 | 0.721 |
| NCI-H2009 | 0.262 | 0.266 | 0.312 | 0.354 | 0.399 | 0.153 | 0.22 | 0.179 | 0.149 | 0.128 | 1.11 | 1.02 | 1.06 | 0.909 | 0.841 | 1.16 | 1.09 | 1.08 | 1.01 | 0.861 |
| NCI-H2023 | 0.533 | 0.547 | 0.55 | 0.581 | 0.663 | 0.419 | 0.417 | 0.48 | 0.371 | 0.421 | 1.06 | 1.03 | 0.995 | 0.915 | 1.05 | 0.639 | 0.667 | 0.595 | 0.715 | 0.792 |
| NCI-H2085 | 0.523 | 0.583 | 0.46 | 0.589 | 0.633 | 0.455 | 0.463 | 0.501 | 0.471 | 0.456 | 1.15 | 1.14 | 1.16 | 1.1 | 1.09 | 0.827 | 0.857 | 0.944 | 0.908 | 0.845 |
| NCI-H2087 | – | 0.18 | 0.234 | 0.209 | 0.181 | – | 0.218 | 0.246 | 0.235 | 0.208 | 0.947 | 0.881 | 0.893 | 0.842 | 0.892 | 0.979 | 0.862 | 0.779 | 0.805 | 0.638 |
| NCI-H2126 | 0.468 | 0.532 | 0.475 | 0.6 | 0.619 | 0.294 | 0.333 | 0.373 | 0.359 | 0.382 | 0.779 | 0.887 | 0.823 | 0.866 | 0.956 | 0.698 | 0.725 | 0.681 | 0.757 | 0.715 |
| NCI-H2228 | 0.269 | 0.45 | 0.497 | 0.597 | 0.658 | 0.502 | 0.801 | 0.753 | 0.668 | 0.7 | 0.543 | 0.953 | 0.693 | 0.854 | 0.757 | 0.579 | 0.839 | 0.524 | 0.782 | 0.81 |
| NCI-H2347 | – | 0.304 | 0.247 | 0.265 | 0.313 | – | 0.513 | 0.471 | 0.476 | 0.432 | 0.536 | 0.92 | 0.733 | 0.766 | 0.752 | 0.675 | 0.965 | 1.08 | 1.03 | 0.942 |
| NCI-H2405 | – | 0.46 | 0.409 | 0.475 | 0.523 | – | 0.555 | 0.374 | 0.491 | 0.485 | – | 0.697 | – | 0.734 | 0.73 | – | 0.967 | – | 0.735 | 0.721 |
| NCI-H3122 | 0.273 | 0.209 | 0.159 | 0.212 | 0.238 | 0.186 | 0.207 | 0.2 | 0.167 | 0.181 | 1.04 | 1.01 | 1.06 | 0.991 | 1.08 | 0.943 | 1.02 | 1.01 | 1.01 | 1.04 |
| PC-3 [JPC-3] | – | 0.812 | 0.751 | 0.893 | 0.863 | – | 0.571 | 0.6 | 0.534 | 0.55 | 0.85 | 0.829 | 0.822 | 0.781 | 0.788 | 0.943 | 0.977 | 0.955 | 0.964 | 0.978 |
| PC-14 | – | 0.976 | 0.944 | 0.708 | 1 | – | 0.643 | 0.618 | 0.522 | 0.65 | 1.01 | 0.977 | 1.05 | 1.01 | 1.06 | 0.956 | 1.03 | 0.957 | 0.975 | 0.984 |
| RERF-LC-KJ | 0.811 | 0.939 | 0.961 | 0.944 | 1.05 | 1.11 | 1.09 | 1.13 | 1.02 | 1.13 | 1.21 | 1.21 | 0.902 | – | 1.15 | 0.876 | 0.989 | 0.871 | 0.83 | 1.01 |
